In assay [1] the test system is primary rat AEC. As to the kind of experiment: Fas ligand-induced apoptosis of primary rat alveolar epithelial cells. The class given is cell-based. The settings on record: lisinopril 500 ng/ml; for inhibition of Fas ligand-induced apoptosis of primary rat AEC (words): captopril, caspase inhibitors 60 uM. The protocol: Lung Cell Isolation and Detection of Apoptosis In Vitro. Primary alveolar epithelial cells (AEC) were isolated from adult male Wistar rats as described above. The primary cells were studied at day two of culture, a time at which they are type II cell-like by accepted morphologic and biochemical criteria, see Paine et al., Am. J. Physiol. […] All cells were seeded in 24-well or 6-well chambers, and all experiments were conducted at subconfluent densities of 80-90% in serum-free Ham's F12 medium. Test reagents were diluted with Ham's F12 medium and were applied for 20 hours at 37° C. in a 5% CO2 incubator.
Detection of apoptotic cells with propidium iodide (PI) was conducted as described above, following digestion of ethanol-fixed cells with DNAse-free RNAse in PBS containing 5 ug/ml PI.
Expression of FAS by alveolar epithelial cells is observed during bleomycin-induced fibrogenesis in mice. See Hagimoto, et al., Am. J. Respir. Cell Mol. Biol. 16:91-101 (1997). […] Apoptosis was detected by quantitation of fragmented nuclei (see above).
Cell Culture and Detection of Apoptosis. The human lung adenocarcinoma cell line A549 was obtained from American Type Culture Collection and cultured in Ham's F12 medium supplemented with 10% fetal bovine serum (FBS). Primary alveolar epithelial cells were isolated from adult male Wistar rats as described earlier (Uhal, B. D., I. Joshi, A. True, S. Mundle, A. Raza, A. Pardo and M. Selman. Fibroblasts isolated after fibrotic lung injury induce apoptosis of alveolar epithelial cells in vitro. Am. J. Physiol. 269:L819-L828, 1995); Wang, R., A. Zagariya, 0. Ibarra-Sunga, C. […] Am. J. Physiol. 276:L885-L889 (1999)). […] All cells were seeded in 24-well or 6-well chambers, and all experiments were conducted at subconfluent densities of 80-90% in serum-free Ham's F12 medium. Test reagents were diluted with serum-free Ham's F12 medium and were applied under serum-free conditions for 20 hours at 37C. in a 5% CO2 incubator. Detection of apoptotic cells with propidium iodide (PI) was conducted as described above Am. J. Physiol. 275:L1013-1017 (1998); Uhal et al., following digestion of ethanol-fixed cells with DNAse-free RNAse in PBS containing 5 μg/ml PI. In all assays, detached cells were retained by centrifugation of the culture vessels during fixation with 70% ethanol, or by retention of culture media and recovery by centrifugation before assay.
Apoptosis was detected by nuclear fragmentation as described above.

Assay [2] relates to A549 cells. The experiment in a line: Angiotensin II-induced apoptosis in A549 cells (nuclear fragmentation, PI). The class given is cell-based, human. The settings on record: saralasin 50 ug/ml. The protocol:
Cell Culture. […] J. Physiol. Suppl. (Oct.) 261:110-117 (1991) and Uhal et al., Am. J. Physiol. 269:[…]-[…] (1995). […] J. Physiol. 272:[…]-[…] (1997). […] J. Physiol. Suppl. (October) 261:110-117 (1991). […] Detection of Apoptosis. […] J. Physiol. […] Assay of Annexin V binding by flow cytometry was performed essentially as described for human lung fibroblasts in Uhal, et al., Am. J. Physiol. 275:[…]-[…] (1998) after trypsinization of cells from culture vessels. Assay of Caspase-3 activity was performed on viable suspension cultures as reported in Uhal, et al., Am. J. Physiol. 275:[…]-1017 (1998). […] For microscopy, cells were cultured on glass cover slips, incubated with test reagents and fixed with 70% ethanol. The fixed cells were immunolabeled overnight at 4° C. with monoclonal antibodies to cytokeratins 7 and 19 (Chemicon International, Temecula, Calif.), and then for one hour at 37° C. with anti-mouse IgG-rhodamine and DNAse-free RNAse (Boehringer Mannheim, Indianapolis, Ind.) The cover slips were then rinsed in distilled water three times and mounted under Fluoromount Solution (Southern Biotechnology Associates, Birmingham, Ala.) containing 5 ug/ml propidium iodide. Photomicroscopy was performed as described in Uhal, et al., Am. J. Physiol. 275:[…]-1017 (1998). […] The absolute values for basal, i.e., 0.0 dose, apoptosis were: A549 serum-free, 2.29±0.33%; […] AEC serum-free: 1.87±0.41%; and AEC+FBS: 1.97±0.37%.

For assay [3], the system named is A549 cells. As to the kind of experiment: Amiodarone-induced net cell loss in A549 cultures. The class given is cell-based, human. The settings on record: A549.
Experimental: Primary alveolar epithelial cells were isolated from adult male Wistar rats. The primary cells were studied at day two of culture, a time at which they are type II cell-like by accepted morphologic and biochemical criteria. All primary cell preparations were of better than 90% purity assessed by acridine orange staining. All cells were seeded in 24-well or 6-well chambers, and all experiments were conducted at subconfluent densities of 80-90% in serum-free Ham's F12 medium. Test reagents were diluted with Ham's F12 medium and were applied for 20 hours at 37C. in a 5% CO2 incubator.
In all assays, detached cells were retained by centrifugation of the culture vessel at 300×g for 10 minutes with a centrifuge rotor designed for culture plates. For detection of necrosis (dye exclusion of PI), the PI was added directly to the cell culture medium immediately before centrifugation of the culture vessel. For detection of apoptosis, ethanol was added directly to the cell culture medium to a final concentration of 70% immediately before the centrifugation. Afterward, the ethanol was carefully removed and the total cell population (attached plus sedimented detached cells) were stained with PI as described above.
Importantly, unattached cells were recovered and included in the analyses, and thus the data represent true loss of cells rather than simple detachment from the substratum.

The text below walks through data of patent US20030113330A1, “Methods for treating pulmonary fibrosis” (priority 1999, published 2003).

Usually inhibition stands for the change of the read-out against control, counted positive when it falls.

The structures appear in SMILES notation. Entries after “also recorded” stand apart in the source; their conditions may differ. Where a SMILES comes first, the peptide text is derived from it. The star is where a group is joined. Cbz = O=C(OCc1ccccc1)*; CH2F = FC*

As to `NCCCC[C@H](N[C@@H](CCc1ccccc1)C(=O)O)C(=O)N1CCC[C@H]1C(=O)O` [lisinopril], the inhibition at 0.5 µg/mL in assay [1] (Rattus norvegicus, Epithelial cell, read-out: inhibition of FASL-induced apoptosis, FASL 25 ng/ml, saralasin 5 mg/ml) is 87%. In addition, the “inhibition of Fas ligand-induced apoptosis of primary rat AEC (words)” value (shortened to “inhibition … (words)”) in assay [1] was “blocked”.
With `COc1ccc2c(c1OCc1ccccc1)C[C@@H](C(=O)O)N(C(=O)C(c1ccccc1)c1ccccc1)C2` [PD126055], the “inhibition of ANGII-induced apoptosis of A549 cells” value (from here on “inhibition … of A549 cells”) in assay [2] is listed as “unable to significantly inhibit”. Also, the “inhibition … (words)” value in assay [1] is listed as “unable to significantly inhibit”.
Consider `CNCC(=O)N[C@@H](CCCN=C(N)N)C(=O)N[C@H](C(=O)N[C@@H](Cc1ccc(O)cc1)C(=O)N[C@H](C(=O)N[C@@H](Cc1cnc[nH]1)C(=O)N1CCC[C@H]1C(=O)N[C@@H](C)C(=O)O)C(C)C)C(C)C` [saralasin], for which the “effect on amiodarone-induced decrease in total cell number” value (“effect on amiodarone-induced decrease” for short) in assay [3] is “significantly inhibited”. In addition, the “inhibition … of A549 cells” value in assay [2] was “completely inhibited”. In addition, the “inhibition of FASL-induced apoptosis” value in assay [1] (FASL 25 ng/ml, saralasin 5 mg/ml) came to 92%. For the same molecule, the “inhibition … (words)” value in assay [1] is recorded as “blocked”.
Turning to `COC(=O)C[C@H](NC(=O)[C@H](C)NC(=O)[C@@H](NC(=O)OCc1ccccc1)C(C)C)C(=O)CF` [ZVAD-fmk, N-benzylcarboxy-Val-Ala-Asp-[O-Me]-CH2F] (Cbz-Val-Ala-Asp(OMe)-CH2F), in assay [3], the “effect on amiodarone-induced decrease” value is given as “significantly inhibited”. For the same molecule, the figures for the “inhibition … (words)” value in assay [1] and in assay [1] (listed as ZVADfmk) were “comparable efficacy to inhibit apoptosis” and “abrogate”, respectively.
As for `CCc1nc2c(C)cc(C)nc2n1Cc1ccc(-c2ccccc2-c2nn[nH]n2)cc1` [L158809], the “inhibition … of A549 cells” value in assay [2] is recorded as “could block”. In assay [1], the “inhibition … (words)” value is reported as “could block”.
On to `C[C@H](CS)C(=O)N1CCC[C@H]1C(=O)O` [captopril], for which, in assay [3], the “effect on amiodarone-induced decrease” value is “significantly inhibited”. Moreover, in assay [1], the “inhibition … (words)” value is recorded as “comparable efficacy to inhibit apoptosis; also recorded: blocked”.
